Test: Solubility and aggregation during conjugation
Assay type: physicochemical
Conditions: conjugation media
Procedure: To this end, 1 eq antibody in a buffer with 150 mM NaCl, 25 mM Tris (pH 8.0) was mixed with a solution of the respective payload (10× or 20× surplus to the concentration of the antibody, depending on the number of linkage sites) and 6 U/ml of transglutaminase. The mixture was incubated for 16 h in a thermomixer at 37° C. and 450 rpm.
For linkage by maleimide chemistry, a 5 mg/mL solution of the respective antibody component in PBS (pH 7.4) was prepared (˜33 μM antibody). The antibody was reduced with TCEP ((tris(2-carboxyethyl)phosphine); ratio of antibody component to TCEP 1:2 to 1:6, depending on the desired DAR; TCEP was used as 2 mM stock, pH 7.0) or in some cases with DTT (dithiothreitol; 20 mM). After incubation for 0.5-2 hours (depending on the number of cysteines to be activated) in a 37° C. water bath, the reaction was allowed to cool down to room temperature.
The solution was desalted to conjugation buffer (10 mM sodium phosphate, pH 6.0, 2 mM EDTA, N2 degassed) on a Sephadex G25 column and adjusted to an antibody concentration of 0.2 mg/mL in conjugation buffer.
Conjugation was initiated by adding the reduced antibody to a solution of the appropriate maleimide-activated linker-payload construct at a suitable ratio (e.g. 1:4 to 1:8 ratio antibody to linker-payload construct for DAR 4; e.g. 1:20 ratio antibody to linker-payload construct for DAR 8). […]

Cc1cccc2c(OC(=O)N(CCC(=O)NCCOS(=O)(=O)O)CCN(C)C(=O)OCc3ccc(NC(=O)[C@H](CCCNC(N)=O)NC(=O)[C@@H](NC(=O)CNC(=O)CNC(=O)CN)C(C)C)cc3)cc3c(c12)[C@H](CCl)CN3C(=O)c1cn2cc(NC(=O)c3cc4ccccc4o3)ccc2n1 [Compound 5]
solubility of the linker-payload construct under coupling conditions: insufficient

From patent US20240058456A1, “MOLECULES WITH SOLUBILITY TAG AND RELATED METHODS” (Merck Patent GmbH, priority 2020, published 2024)
